The target of one assay is Prothrombin (Homo sapiens, UniProt P00734). Description: Thrombin 1536 HTS Dose Response Confirmation. [Related pubchem assays: 1046 (Thrombin 1536 HTS; hits were confirmed in this assay)]. It is filed as functional.
For assay [1], the target named is T1, DNA repair and recombination protein RAD54-like (Homo sapiens, UniProt Q92698).
T1 sequence (Q92698 whole entry): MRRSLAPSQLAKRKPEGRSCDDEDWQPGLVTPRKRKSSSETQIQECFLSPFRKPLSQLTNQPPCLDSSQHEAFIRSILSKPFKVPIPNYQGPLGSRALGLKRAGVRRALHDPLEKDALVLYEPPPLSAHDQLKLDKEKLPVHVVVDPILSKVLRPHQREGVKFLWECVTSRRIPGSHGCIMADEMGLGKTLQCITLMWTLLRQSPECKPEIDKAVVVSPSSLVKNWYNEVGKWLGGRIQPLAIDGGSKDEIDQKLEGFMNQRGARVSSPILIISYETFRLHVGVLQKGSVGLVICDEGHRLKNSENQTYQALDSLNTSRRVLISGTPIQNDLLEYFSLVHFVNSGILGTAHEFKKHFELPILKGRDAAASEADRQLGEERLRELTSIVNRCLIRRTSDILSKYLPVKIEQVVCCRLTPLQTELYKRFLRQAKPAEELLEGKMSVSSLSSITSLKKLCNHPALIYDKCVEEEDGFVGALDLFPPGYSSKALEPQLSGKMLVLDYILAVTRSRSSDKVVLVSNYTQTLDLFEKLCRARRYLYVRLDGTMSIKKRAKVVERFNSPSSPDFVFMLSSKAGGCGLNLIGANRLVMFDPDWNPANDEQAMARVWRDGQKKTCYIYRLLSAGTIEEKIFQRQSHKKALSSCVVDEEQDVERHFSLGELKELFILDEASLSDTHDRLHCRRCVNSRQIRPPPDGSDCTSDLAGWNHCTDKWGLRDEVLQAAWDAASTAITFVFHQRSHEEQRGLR
Description: RAD54 Holliday junction migration blockers – biochemical, fluorescence, cherry-picked samples, dose series, confirmation (AID 651657). In kind it is functional.

Assay [2] concerns the target T2, Rac GTPase-activating protein 1 (Homo sapiens, UniProt Q9H0H5).
T2 sequence (Q9H0H5 whole entry): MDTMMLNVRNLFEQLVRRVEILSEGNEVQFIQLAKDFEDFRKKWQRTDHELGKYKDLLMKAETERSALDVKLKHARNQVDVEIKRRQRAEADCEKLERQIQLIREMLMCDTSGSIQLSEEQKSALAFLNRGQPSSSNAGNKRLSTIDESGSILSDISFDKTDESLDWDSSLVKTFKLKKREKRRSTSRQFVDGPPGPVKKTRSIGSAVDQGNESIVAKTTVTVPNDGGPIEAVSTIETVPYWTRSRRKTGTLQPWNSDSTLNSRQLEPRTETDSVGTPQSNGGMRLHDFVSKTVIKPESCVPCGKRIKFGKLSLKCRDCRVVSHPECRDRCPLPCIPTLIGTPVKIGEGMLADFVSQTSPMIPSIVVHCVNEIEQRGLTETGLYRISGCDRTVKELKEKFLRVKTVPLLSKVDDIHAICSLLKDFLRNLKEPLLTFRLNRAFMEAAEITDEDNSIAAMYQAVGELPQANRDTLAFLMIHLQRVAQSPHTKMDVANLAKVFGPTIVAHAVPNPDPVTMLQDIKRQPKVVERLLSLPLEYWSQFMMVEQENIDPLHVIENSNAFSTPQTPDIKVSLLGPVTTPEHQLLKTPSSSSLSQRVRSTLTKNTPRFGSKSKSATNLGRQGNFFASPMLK
The assay can be described thus: blockers of MgcRacGAP-driven Rac1 GTP hydrolysis – biochemical, ADP Hunter fluorescence, primary and confirmatory, confirmation (AID 624330). In kind it is functional.

Assay [3] has as its target T3, DNA repair protein RAD52 homolog (Homo sapiens, UniProt P43351).
T3 sequence (P43351 whole entry): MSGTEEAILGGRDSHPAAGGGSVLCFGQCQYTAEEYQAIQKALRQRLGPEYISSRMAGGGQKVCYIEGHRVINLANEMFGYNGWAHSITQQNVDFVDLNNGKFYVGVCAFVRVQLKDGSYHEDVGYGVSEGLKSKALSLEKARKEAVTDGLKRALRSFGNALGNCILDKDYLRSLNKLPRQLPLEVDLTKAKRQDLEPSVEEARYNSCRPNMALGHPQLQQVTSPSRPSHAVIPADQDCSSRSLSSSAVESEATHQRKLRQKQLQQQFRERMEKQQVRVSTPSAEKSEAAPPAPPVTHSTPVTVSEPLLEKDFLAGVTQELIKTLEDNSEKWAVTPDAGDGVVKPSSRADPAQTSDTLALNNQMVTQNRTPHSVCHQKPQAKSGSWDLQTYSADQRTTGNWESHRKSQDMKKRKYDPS
In kind it is functional, biochemical.

The target of a further assay is Genome polyprotein (dengue virus type 2, UniProt P29990). Description: flavivirus cap methylation enzyme inhibition – biochemical, confirmation dose response, primary screen (AID 588689). It is filed as functional.
Genome polyprotein, sequence (P29990 2492-3391 limits assumed): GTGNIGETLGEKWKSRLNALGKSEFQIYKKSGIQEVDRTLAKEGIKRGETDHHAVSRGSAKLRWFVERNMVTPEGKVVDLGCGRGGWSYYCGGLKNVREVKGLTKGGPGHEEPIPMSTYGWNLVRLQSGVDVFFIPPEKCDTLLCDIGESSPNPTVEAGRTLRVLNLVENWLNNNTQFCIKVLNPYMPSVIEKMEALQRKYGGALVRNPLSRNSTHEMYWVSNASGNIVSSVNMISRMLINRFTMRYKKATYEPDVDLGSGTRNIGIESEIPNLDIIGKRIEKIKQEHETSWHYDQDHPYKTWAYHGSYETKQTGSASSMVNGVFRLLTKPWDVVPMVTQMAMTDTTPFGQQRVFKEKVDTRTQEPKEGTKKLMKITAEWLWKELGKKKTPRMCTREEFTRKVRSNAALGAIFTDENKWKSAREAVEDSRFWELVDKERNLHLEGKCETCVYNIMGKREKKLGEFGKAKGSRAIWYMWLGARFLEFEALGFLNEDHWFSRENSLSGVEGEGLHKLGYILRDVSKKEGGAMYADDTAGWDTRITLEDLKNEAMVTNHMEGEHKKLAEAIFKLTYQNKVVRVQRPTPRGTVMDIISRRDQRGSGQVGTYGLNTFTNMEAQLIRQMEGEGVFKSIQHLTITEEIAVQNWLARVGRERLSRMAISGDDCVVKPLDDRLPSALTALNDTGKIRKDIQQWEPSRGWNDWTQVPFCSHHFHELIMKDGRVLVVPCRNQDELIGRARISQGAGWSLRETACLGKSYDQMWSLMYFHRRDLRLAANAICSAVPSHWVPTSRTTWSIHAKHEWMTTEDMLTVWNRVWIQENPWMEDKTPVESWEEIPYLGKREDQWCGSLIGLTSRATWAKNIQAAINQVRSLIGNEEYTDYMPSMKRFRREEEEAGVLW
The target in assay [4] is T4, Long-chain-fatty-acid--AMP ligase FadD28 (Mycobacterium tuberculosis, UniProt P9WQ59).
T4 sequence (P9WQ59 whole entry): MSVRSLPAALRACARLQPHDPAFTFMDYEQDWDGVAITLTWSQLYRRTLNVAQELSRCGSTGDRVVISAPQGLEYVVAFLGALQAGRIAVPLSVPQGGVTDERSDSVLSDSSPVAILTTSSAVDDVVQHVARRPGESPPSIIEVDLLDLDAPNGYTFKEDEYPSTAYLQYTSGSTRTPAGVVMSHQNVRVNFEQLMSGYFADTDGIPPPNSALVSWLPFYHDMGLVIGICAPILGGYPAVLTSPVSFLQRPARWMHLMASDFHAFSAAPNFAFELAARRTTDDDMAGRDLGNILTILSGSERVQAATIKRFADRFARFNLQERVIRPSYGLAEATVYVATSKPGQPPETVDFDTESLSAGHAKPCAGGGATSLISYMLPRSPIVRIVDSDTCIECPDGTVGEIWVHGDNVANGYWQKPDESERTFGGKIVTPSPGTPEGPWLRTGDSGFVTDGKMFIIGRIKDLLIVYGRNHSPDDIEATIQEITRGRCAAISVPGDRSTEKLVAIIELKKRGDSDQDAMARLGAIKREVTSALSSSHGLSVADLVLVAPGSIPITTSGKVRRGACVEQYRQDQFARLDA
The assay can be described thus: Fluorescence polarization aasay to screen for inhibitors that compete for the binding of FadD28 to a bisubstrate Measured in Biochemical System Using Plate Reader - 2147-01_Inhibitor_Dose_CherryPick_Activity. In kind it is functional, Mycobacterium tuberculosis H37Rv. A general note: Polarisation of emitted light reports the rotation of a fluorescent probe.

Assay [5] in a line: blockers of HIV-1 envelope-mediated cell-cell fusion – cherry-pick, dose response (AID 652057). It is filed as functional, cell-based.
The nature of assay [6]: blockers of HIV-1 ZM109 envelope-driven cell-cell fusion – HeLa effector, CEM target cells, luciferase, cherry-pick, dose response (AID 652058).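 Further: luciferase signal from HIV-1 Env mediated cell-cell fusion of effector and target cells.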 It is filed as functional, cell-based.
The nature of assay [7]: off-target signal loss in HeLa-CEM21 co-culture – HeLa F-luc CTL cells, cherry-picked, counter-screen for HIV-1 Env fusion inhibitor project, dose response (AID 652040).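 Further: potency for signal decrease marking cytotoxic or nonspecific inhibition.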 It is filed as functional, cell-based. On the technique in general: Counterscreens check selectivity or assay interference.
Assay [8] can be described thus: HIV-1 AD8 envelope cell-cell fusion blockers – cherry-pick, dose response (AID 652062).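 Further: luciferase signal from cell-cell fusion driven by HIV-1 clade B AD8 Env; potency is for inhibitors of fusion seen as a drop in luminescence.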 It is filed as functional, cell-based.
Assay [9] is described as follows: intracellular Trypanosoma cruzi inhibitors in host cells – cell-based, plate reader, cherry-pick samples, set 3, dose response (AID 651818).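 Further: compounds incubated with infected cells for about four days.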 In kind it is functional.

Activity calls are given as the source filed them.

Turning to `CN(C)CCCNc1ncnc2sc(-c3ccccc3)cc12`, the results for the IC50 (against Prothrombin; in assay [2]) were > 50 µM (not active) and 29.9 µM (active), respectively. Moreover, the half-maximal activity concentration (AC50) (in general, the midpoint of the concentration-response curve, whichever way the signal moves) in [1] is 17.4 µM (active); in [3] it was 14.6 µM (active).

Consider `O=C(O)c1[nH]c2ccccc2c1C(c1ccccc1)c1c(C(=O)O)[nH]c2ccccc12`, for which the IC50 (in general, the point on the concentration scale where inhibition reaches its midpoint) on Genome polyprotein is 16.7 µM (active). Further, the AC50 in assay [4] is 36.5 µM (active).

For `C[C@@]12C(=O)N(CC3CCCO3)CC(=O)N1[C@H]1c3cc(Cl)ccc3OC[C@@H]1[C@@H]2c1ccccc1` (some centres not stated), the AC50 is 1.34 µM (active) in [5], 2.64 µM (active) in [6], 2.05 µM (active) in assay [7] and 2.52 µM (active) in [8].

Turning to `C[C@H](CO)N1C[C@H](C)[C@H](CN(C)C(=O)Nc2cccc3ccccc23)Oc2c(NC(=O)c3ccncc3)cccc2C1=O`, the AC50 in [9] is 3.57 µM (active).

Turning to `Cc1ccc(S(=O)(=O)Nc2ccc3c(c2)CC(=O)N([C@H](C)CO)C[C@@H](C)[C@@H](CN(C)S(=O)(=O)c2cccs2)O3)cc1`, in assay [9], the AC50 is 2.5 µM (active).

As for `O=C(O)COc1ccccc1-c1nc(-c2ccccc2)c(-c2ccccc2)[nH]1`, in [4], the AC50 is > 100 µM (inactive).

Regarding `COc1cccc(NC(=O)CN(C)C(=O)c2ccc(S(=O)(=O)Nc3ccccc3C)cc2)c1`, the AC50 in assay [4] was > 100 µM (inactive).

Regarding `C[C@@H]1CN([C@@H](C)CO)C(=O)c2cccc(NC(=O)C3CCCCC3)c2O[C@@H]1CN(C)Cc1ccc(C(=O)Nc2ccccc2N)cc1`, the AC50 in assay [9] was 1.33 µM (active).

In the case of `CCN(CC)CCN(Cc1cc2cc3c(cc2nc1O)OCCO3)C(S)=NCCCN(C)C`, the AC50 in assay [3] is 12.9 µM (active).

As for `N#CC1=C(N)N(c2ccccc2)C(c2ccco2)C1(C#N)C#N` (configuration not stated), the AC50 in assay [4] is > 100 µM (inactive).

As for `C[C@H]1CN([C@@H](C)CO)C(=O)c2cccc(NC(=O)c3ccncc3)c2O[C@H]1CN(C)Cc1ccc(Cl)c(Cl)c1`, the AC50 in assay [9] is 0.08 µM (active).

On to `CCCC[C@H](CN(N=O)[C@@H](Cc1ccccc1)CN(C)N=O)N(CCc1ccccc1)N=O`, for which the AC50 is 3.32 µM (active) in assay [5], 8.46 µM (active) in assay [6], 6.02 µM (active) in assay [7] and 20.6 µM (active) in assay [8].

Regarding `CO[C@H](C(=O)N(C)C[C@@H]1OCc2ccccc2-c2c(n(C)c3ccccc23)C(=O)N([C@H](C)CO)C[C@@H]1C)c1ccccc1`, the AC50 is 6.28 µM (active) in assay [5], 10.2 µM (active) in [6], 15.4 µM (active) in assay [7] and 6.84 µM (active) in [8].

`CC(=O)Nc1cc(-c2ccc(N3CCN(C)CC3)cc2)cn2c(-c3cccc(C(=O)N(C)C)c3)cnc12`: in assay [3], the AC50 is 8.58 µM (active).
